Reference: PubChem BioAssay AID1996
Converted amounts (≈) assume the structure as drawn.

Conditions: buffer; pH 7.4; 200.0 µM

Structure (SMILES) | solubility kinetic
Cc1cc(=O)[nH]c(SCC(=O)N2C(C)CCCC2C)n1 (stereo unspecified) | 38.3 µg/mL (≈ 130 µM)
CCN1CC(CN(C)Cc2nc(-c3ccco3)oc2C)CC1=O (stereo unspecified) | > 47.6 µg/mL
COc1cccc(CC(=O)Nc2ccc(S(=O)(=O)N3CCCCC3)cc2)c1 | 10.1 µg/mL (≈ 26 µM)
Fc1ccc(CN2CCN(c3ncccn3)CC2)c(F)c1 | 32.2 µg/mL (≈ 111 µM)
CN(C1CCCCC1)S(=O)(=O)c1ccc(=S)[nH]c1 | 22.8 µg/mL (≈ 79.6 µM)
N#Cc1ccc(COc2cccnc2[N+](=O)[O-])cc1 | 6.3 µg/mL (≈ 24.7 µM)
COc1cc2ncnc(NCc3cccc(F)c3F)c2cc1OC | 10.7 µg/mL (≈ 32.3 µM)
Cc1ccc(NCc2nc3ccccc3n2C)c(C)c1 | 32.1 µg/mL (≈ 121 µM)
CC(=NCc1cccnc1)c1c(O)n(-c2ccc(Cl)cc2)c(=O)[nH]c1=O | 2 µg/mL (≈ 5.39 µM)
Cc1ccc(N(CCO)C(=S)Nc2ccccc2)cc1 | > 43 µg/mL
CCc1ccccc1NC(=O)CC(NCc1ccccc1)C(=O)O (stereo unspecified) | > 49 µg/mL
C/C(=C\c1ccc(Br)cc1)C(=O)c1c(C)cc(C)[nH]c1=O | > 51.9 µg/mL
N#CCCSc1ccccc1NC(=O)c1cc(=O)c2ccccc2o1 | 2.2 µg/mL (≈ 6.28 µM)
CCN(CC)c1ccc(CNc2nc3ccccc3n2CC)cc1 | 10.9 µg/mL (≈ 33.8 µM)
Cc1cc(C(=O)N2CCC(Cc3ccccc3)CC2)c(C)o1 | 41.6 µg/mL (≈ 140 µM)
Cc1cc(C)nc(Nc2cccc(Cl)c2)n1.Cl | 5.9 µg/mL
CC1CCCC(NC(=O)COC(=O)COc2ccc(Br)cc2)C1C (stereo unspecified) | 11.6 µg/mL (≈ 29.1 µM)
O=C(NCCNc1ccc([N+](=O)[O-])cc1Cl)c1ccccc1F | 1.8 µg/mL (≈ 5.33 µM)
Cc1ccc(S(=O)(=O)c2c(C)cc(C)[nH]c2=O)c(C)c1 | > 43.7 µg/mL
Cc1ccc(C(=O)NCCNS(=O)(=O)c2ccccc2[N+](=O)[O-])cc1 | > 54.5 µg/mL
Cn1c(NN)nc2ccccc2c1=O | > 28.5 µg/mL
CSCCC(NC(=O)c1ccccc1Cl)C(=O)NCCc1ccccn1 (stereo unspecified) | > 58.8 µg/mL
O=C(COC(=O)/C=C/c1cccc(F)c1)NC(=O)NCc1ccccc1 | 2.8 µg/mL (≈ 7.86 µM)
NC(=O)CSc1nccn1Cc1ccc(Cl)cc1 | > 42.3 µg/mL
CC(=O)C1=C(O)C(=O)N(c2ccccn2)C1c1ccc(C)cc1 (stereo unspecified) | > 46.3 µg/mL

Structure (SMILES) | solubility kinetic
O=c1oc(/C=C/c2ccccc2)nc2ccccc12 | 0.7 µg/mL (≈ 2.81 µM)
S=C(NCc1ccccc1)NCc1ccccn1 | > 38.6 µg/mL
CCCCC1C2C(=O)N(c3ccccc3)C(=O)C2ON1c1ccccc1 (stereo unspecified) | 49.1 µg/mL (≈ 140 µM)
COC(=O)c1cc(=O)c2cccc(OC)c2[nH]1 | > 35 µg/mL
Cc1ccc(NC(=O)c2ccc(S(=O)(=O)N3CCOCC3)cc2)c(C)c1 | 5.2 µg/mL (≈ 13.9 µM)
COc1ccccc1/C=C/C(=O)OCC(=O)N1CCCCC1 | > 45.5 µg/mL
Cc1ccc(S(=O)(=O)N2CCC[C@H]2C(=O)OCC(=O)N2CCc3ccccc32)cc1 | 10.8 µg/mL (≈ 25.2 µM)
Fc1ccccc1NC(=S)NCCc1ccc(Cl)cc1 | 39 µg/mL (≈ 126 µM)
O=C1C2CC(O)CN2C(=S)N1Cc1ccccc1 (stereo unspecified) | > 39.3 µg/mL
CCC1C(=O)C(CC)C(c2ccccc2)NC1c1ccccc1 (stereo unspecified) | 4.3 µg/mL (≈ 14 µM)
COc1cc2c(cc1OC)CN(CC(=O)Nc1ccc(F)cc1F)CC2 | 44 µg/mL (≈ 121 µM)
Oc1cccc(/C=N/NC(=S)Nc2cccnc2)c1O | > 43.2 µg/mL
O=C(OCC(=O)N1CCCC1)c1c(Cl)cccc1Cl | 39.6 µg/mL (≈ 131 µM)
Cc1cc(NC(=O)COc2ccc(C(C)(C)C)cc2)no1 | 2 µg/mL (≈ 6.94 µM)
O=C(NC1CCCC1)C1CCCN1C(=O)Oc1ccccc1 (stereo unspecified) | 41.9 µg/mL (≈ 139 µM)
COc1ccc(NC(=O)NCCCCc2ccccc2)cc1 | 2.1 µg/mL (≈ 7.04 µM)
Cc1c(C=O)c2ccccn2c1C(=O)c1ccccc1Cl | < 0.6 µg/mL
Cc1[nH]c2ccccc2c1C(=O)COc1ccccc1F | 1.6 µg/mL (≈ 5.65 µM)
COc1ccccc1NC(=O)/C=C1\NC(=O)CS1 | > 39.6 µg/mL
O=C(O)CSc1nccc2ccccc12 | > 32.9 µg/mL
CCN(CC)C(=O)c1cc(Cl)ccc1NC(=O)c1ccco1 | > 48.1 µg/mL
Cn1c(N)c(C(=O)COC(=O)c2cc3ccccc3cc2O)c(=O)n(C)c1=O | 3.6 µg/mL (≈ 9.39 µM)
Cc1ccc(NC(=S)NC(=O)C2CC2)c(C)c1 | 5.9 µg/mL (≈ 23.8 µM)
O=C(Cn1c(CO)nc2ccccc21)NCCc1ccccc1 | > 46.4 µg/mL
CNC(=O)c1oc(-c2ccccc2)nc1C | > 32.4 µg/mL

Structure (SMILES) | solubility kinetic
CSc1nsc(SC)c1C(=O)Nc1ccc(C(C)(C)C)cc1 | < 0.4 µg/mL
NC(=O)CN1CCN(c2cccc(Cl)c2)CC1 | 33.9 µg/mL (≈ 134 µM)
CCCn1c(=O)c2[nH]c(C3CCCC3)nc2n(CCC)c1=O | 3.1 µg/mL (≈ 10.2 µM)
Cc1cc(Cl)c2ccc(Cl)cc2n1 | < 0.5 µg/mL
Cc1ccc(N2CCN(C(=S)Nc3ccccc3)CC2)cc1 | 1 µg/mL (≈ 3.21 µM)
Cc1cc(=O)oc2cc(N3C(=O)CC(Cc4ccccc4)C3=O)ccc12 (stereo unspecified) | 8.3 µg/mL (≈ 23.9 µM)
CN(C(=O)COC(=O)c1ccc(C#N)cc1)c1ccccc1 | 19.4 µg/mL (≈ 65.9 µM)
Cc1ccc(-n2c(O)c(C=NCc3ccco3)c(=O)[nH]c2=S)cc1C | 11.1 µg/mL (≈ 31.2 µM)
Cc1cc(C)cc(C(=O)NCc2ccc3c(c2)OCO3)c1 | 5.8 µg/mL (≈ 20.5 µM)
O=C(Cc1ccc([N+](=O)[O-])cc1)NCc1ccccn1 | > 40.7 µg/mL
O=C(Nn1cnc2ccccc2c1=O)c1ccccc1F | > 42.5 µg/mL
C=CCc1cccc(CNc2cnc3ccccc3c2)c1O | < 0.3 µg/mL
O=C(CCCO)NNc1c2ccccc2nc2ccccc12 | > 44.3 µg/mL
CCCCCCc1ccc(OC(=O)c2ccncc2)cc1 | 0.7 µg/mL (≈ 2.47 µM)
Cc1cc(Nc2cc(Cl)cc(Cl)c2)nc(N)n1 | 20 µg/mL (≈ 74.3 µM)
Cc1ccc(CC2CC(=O)N(c3nc(C)cc(C)n3)C2=O)cc1 (stereo unspecified) | > 46.4 µg/mL
Nc1nc(F)cc(NCc2ccccc2)n1 | > 32.7 µg/mL
CC1=C(C(=O)OCc2ccccc2)C(c2ccccc2)NC(=O)N1 (stereo unspecified) | 2.8 µg/mL (≈ 8.69 µM)
CC1(NC(=O)Nc2ccccc2)CCS(=O)(=O)C1 (stereo unspecified) | > 40.2 µg/mL
O=C(Nc1ccc(F)cc1F)c1ccc(S(=O)(=O)NCc2ccco2)cc1 | 10.5 µg/mL (≈ 26.8 µM)
CCOc1ccc(S(=O)(=O)NCCC(=O)OCC(=O)NC(=O)c2cccn2C)cc1 | 22.2 µg/mL (≈ 50.7 µM)
Cc1nc2ccccn2c1C(=O)NNC(=O)Nc1ccccc1 | > 46.4 µg/mL
CCOC(=O)CN1C(=O)C(=O)N(Cc2ccccc2F)C1=O | > 46.2 µg/mL
CC1CN(C(=O)c2ccc([N+](=O)[O-])s2)CC(C)O1 (stereo unspecified) | > 40.5 µg/mL
CCN(/C(N)=N/c1nc(C)cc(C)n1)c1ccccc1 | > 40.4 µg/mL

Structure (SMILES) | solubility kinetic
CSc1ccc(/C=C/C(=O)N2CCN(c3ccccn3)CC2)cc1 | 2.3 µg/mL (≈ 6.78 µM)
CC(C)Oc1ccc(C2CC(=O)N(C)C2=O)cc1 (stereo unspecified) | > 37.1 µg/mL
COc1cc(C(=S)N2CCOCC2)cc(OC)c1O | > 42.5 µg/mL
Cc1ccc(N2C(=O)CC(Sc3ncccn3)C2=O)cc1C (stereo unspecified) | 27.7 µg/mL (≈ 88.4 µM)
Cn1ccnc1SCC(=O)c1ccc(OC(F)F)cc1 | > 44.7 µg/mL
O=C1OCCN/C1=C\C(=O)c1ccccc1 | > 32.6 µg/mL
Cc1ccc([N+](=O)[O-])cc1NC(=O)c1cccnc1 | > 38.6 µg/mL
CC(O)CNc1ccc([N+](=O)[O-])cc1S(=O)(=O)N1CCOCC1 (stereo unspecified) | > 51.8 µg/mL
Cc1ccc(O)c(NC(=S)NC(=O)C(C)C)c1 | > 37.8 µg/mL
COCCN1CCn2c(nc3cc([N+](=O)[O-])ccc32)C1 | > 41.4 µg/mL
COc1ccc(NS(=O)(=O)c2c(C)cc(C)cc2C)cn1 | 5.3 µg/mL (≈ 17.3 µM)
O=S(=O)(c1cc(Br)c(Cl)s1)N1CCCC1 | 1 µg/mL (≈ 3.02 µM)
C=CCN(CC=C)C(=O)C[n+]1ccc(C(N)=O)cc1.[Cl-] | > 44.4 µg/mL
Cc1nc(N/C(N)=N/S(=O)(=O)c2ccccc2)nc2ccccc12 | 3.6 µg/mL (≈ 10.5 µM)
O=C(NCCCCc1ccccc1)c1cccc(Br)c1 | 9.6 µg/mL (≈ 28.9 µM)
Cc1ccccc1OCC(=O)NCCCNC(=O)c1ccccn1 | > 49.1 µg/mL
CC1(C)C(=O)Nc2ccccc2N1C(=O)COC(=O)c1cc(Cl)cc(Cl)c1 | 2.8 µg/mL (≈ 6.88 µM)
O=C(c1ccccc1)N1CCN(CCc2ccccc2)CC1 | 40.7 µg/mL (≈ 138 µM)
COc1cccc(C=O)c1OC(=O)N1CCOCC1 | > 39.8 µg/mL
CN(C)CCOC1c2ccccc2-c2ccccc21.O=C(O)C(=O)O | > 51.5 µg/mL
CSCC[C@H](NC(=O)Nc1ccc(OC(F)(F)F)cc1)C(=O)O | > 52.8 µg/mL
O=C(NCC1CCCO1)c1cc2cc(F)ccc2[nH]1 (stereo unspecified) | 36.8 µg/mL (≈ 140 µM)
CC1C(=O)N2CCCc3cc(NC(=O)C(=O)NCc4cccnc4)cc1c32 (stereo unspecified) | > 54.7 µg/mL
Cc1cc(S(=O)(=O)Nc2nc(CN3CCOCC3)nc3sc4c(c23)CCC4)ccc1F | 67.4 µg/mL (≈ 146 µM)
CN(Cc1c(O)ccc2c1oc(=O)c1ccccc12)C1CCCCC1 | > 50.6 µg/mL

Structure (SMILES) | solubility kinetic
CCNC(=O)N1CCCC(C(=O)c2ccc(OC)c(OC)c2)C1 (stereo unspecified) | 35 µg/mL (≈ 109 µM)
COc1cc(CN2CCCCCC2)cc(Br)c1O | 39.6 µg/mL (≈ 126 µM)
Cc1ccccc1OCC(=O)Nc1nc(-c2ccncc2)cs1 | 4.9 µg/mL (≈ 15.1 µM)
CN(C)c1ccc(C(CN)c2c[nH]c3ccccc23)cc1 (stereo unspecified) | 30.2 µg/mL (≈ 108 µM)
CCC(CC)C(=O)c1c[nH]c(C(=O)NCc2ccccn2)c1 | > 44.9 µg/mL
COc1cccc(OC)c1CNC(=O)CCSCc1ccccc1F | 37.3 µg/mL (≈ 103 µM)
COc1ccccc1C1Nc2ccccc2NC2=C1C(=O)CC(C)(C)C2 (stereo unspecified) | 51.6 µg/mL (≈ 148 µM)
CCN(C(=O)c1ccc(=O)n(C)n1)c1c(N)n(Cc2ccccc2)c(=O)[nH]c1=O | > 59.5 µg/mL
O=C(N/C(=C/c1ccccc1Cl)C(=O)N1CCCC1)c1ccccc1 | > 53.2 µg/mL
CCc1cc2cc(C)cc(C)c2[nH]c1=S | 3.9 µg/mL (≈ 17.9 µM)
CNC(=O)c1cnc(-c2ccccc2)nc1-c1ccccc1 | 14.8 µg/mL (≈ 51.2 µM)
O=C(NCc1ccccc1)C12CC3CC(CC(Cl)(C3)C1)C2 | 5 µg/mL (≈ 16.5 µM)
CCOC(=O)N1CCN(CC(=O)Nc2ccc(F)c(F)c2)CC1 | > 49.1 µg/mL
CC1CC(CCN)(c2ccccc2)C(C)CN1C.Cl (stereo unspecified) | > 47.9 µg/mL
CCOc1cc2c(cc1/C=C/c1noc(C)c1[N+](=O)[O-])OC(C)C2 (stereo unspecified) | < 0.4 µg/mL
O=C(O)c1cccc2c1C(=O)N(Cc1ccccc1)C2 | > 40.1 µg/mL
CCOC(=O)c1cc(C#N)c(C)nc1N(CC)CC | 16.4 µg/mL (≈ 62.8 µM)
COc1cccc2cc(C(=O)NCCc3ccccc3)oc12 | 26.9 µg/mL (≈ 91.1 µM)
Cc1cc(C)c2cc(C(=O)Nc3ccc(C)c(F)c3)[nH]c2c1 | 0.8 µg/mL (≈ 2.7 µM)
O=C(OCCN=C1NS(=O)(=O)c2ccccc21)c1ccccc1F | 5.7 µg/mL (≈ 16.4 µM)
Clc1ccc(CN2CCN(c3ncccn3)CC2)cc1Cl | 13 µg/mL (≈ 40.2 µM)
